In series [1] the target is Voltage-gated inwardly rectifying potassium channel KCNH2 (Homo sapiens, UniProt Q12809). The following applies: hek293. Note: in other assays of this panel Not Active means under 50% inhibition at 10 µM.
The target in series [2] is Matrix metalloproteinase-9 (Homo sapiens, UniProt P14780). Nature of the series: biochemical. Format: cell-based.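 Note: inhibition of isolated MMP-9 enzyme activity toward a synthetic peptide substrate, from the DrugMatrix protease screening panel; in other assays of this panel Not Active means under 50% inhibition at 10 µM.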
Chain of Matrix metalloproteinase-9 (P14780 whole entry): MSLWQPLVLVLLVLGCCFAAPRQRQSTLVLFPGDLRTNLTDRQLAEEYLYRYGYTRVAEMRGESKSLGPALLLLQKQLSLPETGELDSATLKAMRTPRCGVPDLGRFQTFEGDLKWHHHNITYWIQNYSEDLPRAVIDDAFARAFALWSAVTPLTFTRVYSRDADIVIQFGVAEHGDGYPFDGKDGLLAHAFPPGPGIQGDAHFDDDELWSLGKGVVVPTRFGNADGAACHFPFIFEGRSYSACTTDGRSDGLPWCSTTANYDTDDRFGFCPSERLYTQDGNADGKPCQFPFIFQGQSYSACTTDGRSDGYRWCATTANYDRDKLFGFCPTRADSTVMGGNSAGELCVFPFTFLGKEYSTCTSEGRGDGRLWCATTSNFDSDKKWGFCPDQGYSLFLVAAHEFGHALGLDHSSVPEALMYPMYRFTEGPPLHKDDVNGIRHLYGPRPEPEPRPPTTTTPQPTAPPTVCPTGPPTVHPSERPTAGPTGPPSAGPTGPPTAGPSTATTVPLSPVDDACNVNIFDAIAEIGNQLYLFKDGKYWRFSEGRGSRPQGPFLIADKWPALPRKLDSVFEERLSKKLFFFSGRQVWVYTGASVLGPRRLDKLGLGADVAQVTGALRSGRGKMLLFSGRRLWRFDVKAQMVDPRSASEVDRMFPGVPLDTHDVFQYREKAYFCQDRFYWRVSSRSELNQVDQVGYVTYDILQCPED
Series [3] deals with 5-hydroxytryptamine receptor 2B (Homo sapiens, UniProt P41595). Format: cell membranes, CHO-K1, Membrane. The following applies: cho-k1.
Chain of 5-hydroxytryptamine receptor 2B (P41595 whole entry): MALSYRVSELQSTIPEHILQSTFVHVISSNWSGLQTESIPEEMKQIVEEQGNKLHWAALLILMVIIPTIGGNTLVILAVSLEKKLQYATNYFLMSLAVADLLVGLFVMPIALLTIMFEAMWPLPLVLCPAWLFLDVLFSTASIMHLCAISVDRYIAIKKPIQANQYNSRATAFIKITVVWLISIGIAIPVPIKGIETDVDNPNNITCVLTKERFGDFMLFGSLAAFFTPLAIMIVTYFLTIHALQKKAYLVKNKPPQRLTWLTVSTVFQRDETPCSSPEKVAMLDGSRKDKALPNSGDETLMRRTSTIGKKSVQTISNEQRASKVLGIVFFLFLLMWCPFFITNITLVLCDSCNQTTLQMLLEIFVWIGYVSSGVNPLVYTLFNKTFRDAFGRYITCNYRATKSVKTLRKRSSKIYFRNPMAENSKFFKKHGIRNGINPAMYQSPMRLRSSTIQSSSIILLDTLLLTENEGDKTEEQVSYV
The target of series [4] is T1, Androgen receptor (Rattus norvegicus, UniProt P15207). Note: in other assays of this panel Not Active means under 50% inhibition at 10 µM.
T1 sequence (P15207 whole entry): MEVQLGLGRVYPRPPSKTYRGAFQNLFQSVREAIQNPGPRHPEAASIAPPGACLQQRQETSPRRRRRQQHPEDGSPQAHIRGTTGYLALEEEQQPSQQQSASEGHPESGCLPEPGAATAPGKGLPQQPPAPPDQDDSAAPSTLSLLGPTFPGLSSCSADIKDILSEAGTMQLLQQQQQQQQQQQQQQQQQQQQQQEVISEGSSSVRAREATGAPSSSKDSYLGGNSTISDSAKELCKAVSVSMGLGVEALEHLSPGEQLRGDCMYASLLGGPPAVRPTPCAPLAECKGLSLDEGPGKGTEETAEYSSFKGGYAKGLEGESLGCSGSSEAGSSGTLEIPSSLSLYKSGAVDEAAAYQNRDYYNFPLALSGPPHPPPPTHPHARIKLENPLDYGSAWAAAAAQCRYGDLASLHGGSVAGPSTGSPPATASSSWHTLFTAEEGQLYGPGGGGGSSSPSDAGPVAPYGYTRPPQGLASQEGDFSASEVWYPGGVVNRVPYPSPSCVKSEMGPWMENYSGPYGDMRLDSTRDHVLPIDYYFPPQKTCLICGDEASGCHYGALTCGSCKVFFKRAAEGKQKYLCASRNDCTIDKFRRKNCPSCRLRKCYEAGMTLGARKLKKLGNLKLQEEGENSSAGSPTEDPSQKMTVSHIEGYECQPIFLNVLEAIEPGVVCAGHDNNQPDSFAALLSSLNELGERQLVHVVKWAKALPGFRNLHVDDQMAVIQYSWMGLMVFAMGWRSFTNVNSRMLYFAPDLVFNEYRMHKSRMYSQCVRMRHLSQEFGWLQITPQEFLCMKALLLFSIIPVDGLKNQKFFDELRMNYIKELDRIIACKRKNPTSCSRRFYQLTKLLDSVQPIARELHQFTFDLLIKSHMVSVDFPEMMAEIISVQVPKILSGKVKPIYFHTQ

Series [5] concerns the target T2, Estrogen receptor (Homo sapiens, UniProt P03372). Note: in other assays of this panel Not Active means under 50% inhibition at 10 µM.
T2 sequence (P03372 whole entry): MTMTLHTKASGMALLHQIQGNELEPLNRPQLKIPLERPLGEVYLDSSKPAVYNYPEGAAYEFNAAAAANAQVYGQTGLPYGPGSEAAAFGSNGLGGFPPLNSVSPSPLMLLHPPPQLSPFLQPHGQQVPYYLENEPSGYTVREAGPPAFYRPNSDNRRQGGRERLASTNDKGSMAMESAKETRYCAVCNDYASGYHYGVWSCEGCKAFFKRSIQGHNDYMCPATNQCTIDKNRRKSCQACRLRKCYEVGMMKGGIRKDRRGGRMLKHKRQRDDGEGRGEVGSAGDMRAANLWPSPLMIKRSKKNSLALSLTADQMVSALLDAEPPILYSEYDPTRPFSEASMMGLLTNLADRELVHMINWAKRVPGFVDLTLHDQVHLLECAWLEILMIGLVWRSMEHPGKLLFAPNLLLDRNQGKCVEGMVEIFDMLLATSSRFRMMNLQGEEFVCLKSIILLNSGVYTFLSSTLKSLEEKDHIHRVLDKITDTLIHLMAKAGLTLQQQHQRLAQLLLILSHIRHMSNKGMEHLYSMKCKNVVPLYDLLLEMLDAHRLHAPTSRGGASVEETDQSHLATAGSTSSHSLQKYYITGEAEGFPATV
The following applies: sf9.

Series [6] is described as follows: DRUGMATRIX: Calcium Channel Type L, Dihydropyridine radioligand binding (ligand: [3H] Nitrendipine). Format: cell membranes, Rattus norvegicus, Wistar, Cerebral cortex, Membrane. Particulars: Not Active = under 50% inhibition at 10 µM.
Series [7] concerns the target Kappa-type opioid receptor (Homo sapiens, UniProt P41145). Nature of the series: DRUGMATRIX: Opiate kappa (OP2, KOP) radioligand binding (ligand: [3H] Diprenorphine). Format: cell membranes, HEK293, Membrane. The following applies: hek293; Not Active = under 50% inhibition at 10 µM.
The target of series [8] is T3, Cholecystokinin receptor type A (Homo sapiens, UniProt P32238). Note: in other assays of this panel Not Active means under 50% inhibition at 10 µM.
T3 sequence (P32238 whole entry): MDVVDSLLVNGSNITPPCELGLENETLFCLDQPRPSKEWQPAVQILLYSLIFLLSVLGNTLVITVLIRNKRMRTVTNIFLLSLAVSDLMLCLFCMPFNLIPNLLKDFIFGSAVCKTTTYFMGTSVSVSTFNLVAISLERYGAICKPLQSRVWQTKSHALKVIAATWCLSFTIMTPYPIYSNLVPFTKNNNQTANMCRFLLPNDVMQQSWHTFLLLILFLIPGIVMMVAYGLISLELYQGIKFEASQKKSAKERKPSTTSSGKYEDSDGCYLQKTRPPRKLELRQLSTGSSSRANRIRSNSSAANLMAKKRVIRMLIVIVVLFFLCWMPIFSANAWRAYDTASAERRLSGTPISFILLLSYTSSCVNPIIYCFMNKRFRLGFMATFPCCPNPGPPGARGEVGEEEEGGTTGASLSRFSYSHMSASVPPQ
The class given is cell membranes, Membrane. Particulars: 1321-n1.

Series [9] addresses Cytochrome P450 2D6 (Homo sapiens, UniProt P10635).
Series [10] concerns the target T4, Cytochrome P450 1A2 (Homo sapiens, UniProt P05177). Note: in other assays of this panel Not Active means under 50% inhibition at 10 µM.
T4 sequence (P05177 whole entry): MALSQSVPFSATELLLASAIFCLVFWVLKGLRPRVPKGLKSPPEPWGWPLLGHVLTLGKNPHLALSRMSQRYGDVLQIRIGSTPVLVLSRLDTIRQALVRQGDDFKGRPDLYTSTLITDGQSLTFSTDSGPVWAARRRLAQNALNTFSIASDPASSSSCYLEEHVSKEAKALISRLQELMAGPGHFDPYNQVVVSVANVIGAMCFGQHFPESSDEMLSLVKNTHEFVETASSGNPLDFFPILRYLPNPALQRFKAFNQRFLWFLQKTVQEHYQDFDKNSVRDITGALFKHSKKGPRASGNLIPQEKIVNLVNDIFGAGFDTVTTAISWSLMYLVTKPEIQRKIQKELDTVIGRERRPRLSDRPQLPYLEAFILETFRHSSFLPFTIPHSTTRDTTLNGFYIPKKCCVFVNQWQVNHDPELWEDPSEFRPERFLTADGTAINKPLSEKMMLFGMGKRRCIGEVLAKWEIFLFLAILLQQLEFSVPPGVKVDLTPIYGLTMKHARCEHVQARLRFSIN

Chain of Kappa-type opioid receptor (P41145 whole entry): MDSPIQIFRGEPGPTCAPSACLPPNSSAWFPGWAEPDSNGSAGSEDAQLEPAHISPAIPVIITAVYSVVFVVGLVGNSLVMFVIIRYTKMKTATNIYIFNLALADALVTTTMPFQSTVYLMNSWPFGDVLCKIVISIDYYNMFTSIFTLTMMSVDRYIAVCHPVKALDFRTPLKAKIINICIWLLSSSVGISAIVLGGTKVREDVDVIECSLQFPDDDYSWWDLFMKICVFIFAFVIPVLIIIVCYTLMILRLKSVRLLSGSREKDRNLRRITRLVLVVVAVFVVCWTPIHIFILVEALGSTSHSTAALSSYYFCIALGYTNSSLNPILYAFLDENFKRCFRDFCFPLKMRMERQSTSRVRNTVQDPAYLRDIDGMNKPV
Chain of Voltage-gated inwardly rectifying potassium channel KCNH2 (Q12809 whole entry): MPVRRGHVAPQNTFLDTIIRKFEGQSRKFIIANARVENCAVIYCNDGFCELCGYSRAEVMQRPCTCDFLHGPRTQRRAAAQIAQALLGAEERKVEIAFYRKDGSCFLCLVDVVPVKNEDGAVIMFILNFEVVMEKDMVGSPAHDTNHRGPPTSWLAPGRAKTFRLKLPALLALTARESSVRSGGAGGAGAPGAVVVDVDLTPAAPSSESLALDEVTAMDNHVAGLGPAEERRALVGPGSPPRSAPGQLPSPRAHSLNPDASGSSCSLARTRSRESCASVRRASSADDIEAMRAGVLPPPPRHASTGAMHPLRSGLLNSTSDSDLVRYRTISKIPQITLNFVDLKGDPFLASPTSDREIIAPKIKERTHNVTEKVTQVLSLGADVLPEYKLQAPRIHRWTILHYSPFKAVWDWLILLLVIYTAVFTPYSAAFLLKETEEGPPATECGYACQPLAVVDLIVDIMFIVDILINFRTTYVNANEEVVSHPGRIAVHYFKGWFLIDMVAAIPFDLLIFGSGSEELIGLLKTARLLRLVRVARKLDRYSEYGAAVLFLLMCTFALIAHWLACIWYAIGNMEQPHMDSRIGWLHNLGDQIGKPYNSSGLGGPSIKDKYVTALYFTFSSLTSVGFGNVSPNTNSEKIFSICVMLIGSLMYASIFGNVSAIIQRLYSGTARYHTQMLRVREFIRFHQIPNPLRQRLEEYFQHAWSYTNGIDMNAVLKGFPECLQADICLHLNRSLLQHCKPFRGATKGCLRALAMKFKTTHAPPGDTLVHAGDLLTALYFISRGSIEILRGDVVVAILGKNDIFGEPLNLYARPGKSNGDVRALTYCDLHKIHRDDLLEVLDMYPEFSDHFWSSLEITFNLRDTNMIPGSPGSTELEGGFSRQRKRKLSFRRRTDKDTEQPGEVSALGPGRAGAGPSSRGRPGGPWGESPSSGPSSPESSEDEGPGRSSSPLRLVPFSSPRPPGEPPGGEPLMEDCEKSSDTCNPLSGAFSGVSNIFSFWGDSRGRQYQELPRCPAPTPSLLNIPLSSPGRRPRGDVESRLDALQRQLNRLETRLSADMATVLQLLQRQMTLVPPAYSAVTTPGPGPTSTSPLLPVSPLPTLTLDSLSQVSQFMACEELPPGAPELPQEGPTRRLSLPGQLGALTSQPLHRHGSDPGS
Chain of Cytochrome P450 2D6 (P10635 whole entry): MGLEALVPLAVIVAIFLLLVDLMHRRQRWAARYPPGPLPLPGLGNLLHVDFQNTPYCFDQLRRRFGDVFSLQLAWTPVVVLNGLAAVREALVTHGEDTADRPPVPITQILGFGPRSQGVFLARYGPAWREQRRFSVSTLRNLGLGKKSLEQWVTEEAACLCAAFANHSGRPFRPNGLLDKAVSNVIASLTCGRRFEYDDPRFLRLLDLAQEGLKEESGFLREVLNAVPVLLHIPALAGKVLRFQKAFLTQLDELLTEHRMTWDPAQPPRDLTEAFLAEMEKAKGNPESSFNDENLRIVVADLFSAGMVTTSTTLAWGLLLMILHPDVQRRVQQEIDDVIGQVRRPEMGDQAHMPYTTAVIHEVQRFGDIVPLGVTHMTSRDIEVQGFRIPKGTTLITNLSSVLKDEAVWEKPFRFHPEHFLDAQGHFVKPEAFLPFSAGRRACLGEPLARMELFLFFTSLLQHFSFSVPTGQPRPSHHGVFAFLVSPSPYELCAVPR

Broadly, the IC50 is the concentration that inhibits the measured activity by half. `N[C@H](CSC(=S)NCc1ccccc1)C(=O)O`: the IC50 result in series [1], in [2], in [3], in series [4], in [5] and in [6] was “Not Active” each time. Besides, the IC50 result in series [7] and in series [8] was “Not Active” each time. Also, the Ki entry in series [1] and in series [6] was “Not Active” in each case.
Take `CC(=O)N[C@@H]1[C@H](Oc2c3cc4cc2Oc2ccc(cc2Cl)[C@@H](O[C@@H]2O[C@@H](CO)[C@@H](O)[C@H](O)[C@@H]2NC(C)=O)[C@@H]2NC(=O)[C@H](NC(=O)[C@@H]4NC(=O)[C@H]4NC(=O)[C@@H](Cc5ccc(c(Cl)c5)O3)NC(=O)[C@H](N)c3ccc(O)c(c3)Oc3cc(O)cc4c3)c3ccc(O)c(c3)-c3c(O[C@H]4O[C@H](CO)[C@@H](O)[C@@H](O)[C@@H]4O)cc(O)cc3[C@@H](C(=O)O)NC2=O)O[C@@H](CO)[C@@H](O)[C@@H]1O`: the IC50 result in series [1], in series [2], in series [3], in series [4], in series [5] and in [6] was “Not Active” each time. Also, the IC50 result in series [7] and in series [8] was “Not Active” in each case. In addition, the Ki entry in series [1] and in [6] was “Not Active” each time.
As for `Clc1ccc2c(c1)C(N1CCNCC1)=Nc1ccccc1O2` [AMOXAPINE], the IC50 entry in [1] was “Not Active”; in [2], “Not Active”; in series [5], “Not Active”; in series [7] it was “Not Active”; in series [8], “Not Active”; in [9], 10 µM. For the same molecule, the Ki entry in series [1] is given as “Not Active”.
Take `COc1cc2c(c(OC)c1OC)-c1ccc(OC)c(=O)cc1[C@@H](NC(C)=O)CC2` [COLCHICINE]: the IC50 result in series [1], in [2], in [3], in [4], in series [5] and in series [8] was “Not Active” throughout. In addition, in [1], the Ki result is “Not Active”.
For the molecule `CC(C)NCC(O)COc1cccc2ccccc12` (centres undefined) [PROPRANOLOL], the concentration for half-maximal inhibition (IC50) is 4 µM in series [10]; “Not Active” in series [1]; “Not Active” in series [2]; “Not Active” in series [7]; “Not Active” in series [8]. Besides, in series [1], the Ki result was “Not Active”.
Take `CO[C@H]1/C=C/O[C@@]2(C)Oc3c(C)c(O)c4c(c3C2=O)C2=NC3(CCN(CC(C)C)CC3)NC2=C(NC(=O)/C(C)=C\C=C\[C@H](C)[C@H](O)[C@@H](C)[C@@H](O)[C@@H](C)[C@H](OC(C)=O)[C@@H]1C)C4=O` [RIFABUTIN]: the IC50 result in [1], in series [2], in series [3], in series [4], in [5] and in [6] was “Not Active” throughout. Further, the concentration for half-maximal inhibition (IC50) entry in [7] and in series [8] was “Not Active” in each case. Besides, the Ki result in [1] and in [6] was “Not Active” in each case.
As for `COc1cc(NS(=O)(=O)c2ccc(N)cc2)nc(OC)n1` [SULFADIMETHOXINE], the IC50 entry in series [1], in series [2], in series [3], in series [4], in [5] and in series [6] was “Not Active” throughout. Besides, the IC50 entry in [7] and in series [8] was “Not Active” each time. The Ki entry in series [1] and in [6] was “Not Active” each time.
Regarding `Cc1cccc(Nc2ccncc2S(=O)(=O)NC(=O)NC(C)C)c1` [TORSEMIDE], the IC50 result in [1], in [2], in [3], in series [5], in series [6] and in series [7] was “Not Active” throughout. For the same molecule, in [8], the IC50 entry was “Not Active”. The Ki entry in [1] and in [6] was “Not Active” in each case.
As to `CC(C)C[C@H](NC(=O)[C@@H](O)[C@H](N)Cc1ccccc1)C(=O)O` [UBENIMEX], the IC50 result in [1], in series [2], in series [3], in series [5], in [6] and in [7] was “Not Active” each time. For the same molecule, the IC50 entry in series [8] is “Not Active”. Further, the Ki entry in series [1] and in series [6] was “Not Active” throughout.
On to `CC[C@]1(O)C[C@@H]2CN(CCc3c([nH]c4ccccc34)[C@@](C(=O)OC)(c3cc4c(cc3OC)N(C)[C@H]3[C@@](O)(C(=O)OC)[C@H](OC(C)=O)[C@]5(CC)C=CCN6CC[C@]43[C@@H]65)C2)C1` [VINBLASTINE], for which the IC50 result in series [1], in series [2], in series [3], in series [5], in series [6] and in [7] was “Not Active” throughout. Further, in series [8], the IC50 result was “Not Active”. Moreover, the Ki result in series [1] and in series [6] was “Not Active” in each case.
`C[C@@H](N)[C@H]1CC[C@H](C(=O)Nc2ccncc2)CC1` [Y-27632]: the concentration for half-maximal inhibition (IC50) entry in series [2], in [3], in [4], in series [5], in [6] and in [7] was “Not Active” each time. The IC50 result in [8] is “Not Active”. In series [6], the Ki entry is given as “Not Active”.
Turning to `[Cl-].[Cl-].[Zn+2]` [ZINC CHLORIDE], the IC50 result in series [1], in [2], in [3], in series [5], in series [6] and in series [7] was “Not Active” throughout. For the same molecule, the IC50 result in [8] is “Not Active”. Further, the Ki result in series [1] and in series [6] was “Not Active” in each case.

For the origin of these results see ChEMBL document CHEMBL1909046, “DrugMatrix in vitro pharmacology data”.
